Laboratory results: PMC7221482 (Neurochemistry international, 2019)
Structures can show the parent of a compound that is named as a salt. Where two headings read alike, the source gives them in different places.

Columns and labels:
rα9α10 AChRs = rα9α10 AChRs (Rattus norvegicus, UniProt P43144+Q9JLB5); assay type: cell-based
hα7 AChRs = hα7 AChRs (Homo sapiens, UniProt P36544); assay type: cell-based
[1] = target: T1, hα3β4 AChRs ([3H]imipramine sites) (Homo sapiens, UniProt P30926+P32297); assay: [3H]Imipramine competition binding to hα3β4 AChR-containing membranes
[2] = target: T2, hα4β2 AChRs ([3H]imipramine sites) (Homo sapiens, UniProt P17787+P43681); assay: [3H]Imipramine competition binding to hα4β2 AChR-containing membranes
hα3β4 AChRs = hα3β4 AChRs (Homo sapiens, UniProt P30926+P32297); assay type: cell-based
habenular mα3β4* AChRs = habenular mα3β4* AChRs (Mus musculus, UniProt Q8R493+Q8R4G9); assay: Patch-clamp recordings of ACh-evoked currents from MHb; assay type: cell-based
hα4β2 AChRs = hα4β2 AChRs (Homo sapiens, UniProt P17787+P43681); assay type: cell-based
[3] = target: T2, hα4β2 AChRs ([3H]imipramine sites); conditions: read-out: Kd (dissociation constant), ref Arias et al., 2010b; cited from earlier work
[4] = target: T1, hα3β4 AChRs ([3H]imipramine sites); conditions: ref Arias et al., cited from earlier work
[5] = desensitized state, [3H]imipramine competition

For `CC(=O)OCC[N+](C)(C)C` [ACh, acetylcholine], the “nH of ACh” value (rα9α10 AChRs; No (±)-citalopram) was 0.98 ± 0.2 and the “nH of ACh” value (rα9α10 AChRs; in the presence of 8.0 μM (±)-citalopram) was 1.11 ± 0.6.

For `CN(C)CCCC1(c2ccc(F)cc2)OCc2cc(C#N)ccc21` (racemic) [(±)-citalopram, 1-[3-(dimethylamino)propyl]-1-(4-fluorophenyl)-1,3-dihydro-5-isobenzofurancarbonitrile], the IC50 (rα9α10 AChRs) was 7.5 ± 0.9 µM, the “increase of the ACh EC50 value” (rα9α10 AChRs; 8.0 μM (±)-citalopram, p = 0.0001) was 7.5 fold and the “nH (Hill coefficient)” value (rα9α10 AChRs; inhibition of 10 μM ACh-evoked rα9α10 currents, Xenopus oocytes) was 1.35 ± 0.10. The inhibition at 10 µM (rα9α10 AChRs; read-out: inhibition of ACh responses, 10 μM (±)-citalopram, 10 μM ACh, +40 mV) was 43.3 ± 4.9%, the inhibition at 10 µM (rα9α10 AChRs; read-out: inhibition of ACh responses, 10 μM (±)-citalopram, 10 μM ACh, −90 mV) was 46 ± 4.7% and the IC50 (hα7 AChRs) was 18.8 ± 1.1 µM. For the same compound, the “nH (Hill coefficient)” value (hα7 AChRs; inhibition of (±)-epibatidine-induced Ca2+ influx, GH3-hα7 cells) was 1.44 ± 0.22, the Ki [1] was 1.8 ± 0.1 µM and the “nH (Hill coefficient)” value [1, 5] was 0.74 ± 0.04. The Ki [2] was 4.1 ± 0.3 µM, the Ki ([2]; Ki (binding affinity), resting state, in the presence of 0.1 κ-bungarotoxin) was 5.9 ± 0.4 µM and the “nH (Hill coefficient)” value [2, 5] was 0.72 ± 0.03. For the same compound, the IC50 (hα3β4 AChRs) was 5.1 ± 1.3 µM, the “nH (Hill coefficient)” value (hα3β4 AChRs; inhibition of (±)-epibatidine-induced Ca2+ influx, HEK293-hα3β4 cells) was 1.00 ± 0.10 and the IC50 (habenular mα3β4* AChRs; IC50(0), ligand concentration to produce 50% inhibition at 0 mV, one-site blocking model, Eq. (1)) was 92 µM. The IC50 (habenular mα3β4* AChRs; IC50, inhibition of 100 μM ACh puff-evoked currents, MHb (VI) neurons) was 7.6 ± 1 µM, the IC50 (hα4β2 AChRs) was 19.1 ± 4.2 µM and the “nH (Hill coefficient)” value (hα4β2 AChRs; inhibition of (±)-epibatidine-induced Ca2+ influx, HEK293-hα4β2 cells) was 1.24 ± 0.19.

For `CN(C)CCCN1c2ccccc2CCc2ccccc21` [[^3H]imipramine, [^3H]Imipramine hydrochloride], the Kd [3] is listed as 0.83 µM and the Kd ([4]; read-out: Kd (dissociation constant), hα3β4 AChRs, 2010c) is listed as 0.41 µM.

For `CNCCC(Oc1ccc(C(F)(F)F)cc1)c1ccccc1` (centres unmarked) [fluoxetine], the Ki ([4]; hα3β4 AChR, [3H]imipramine sites, 2010a) is given as 4.8 ± 0.5 µM.
